Structures are written as SMILES.

The record followed here is ChEMBL document CHEMBL1156193, “Discovery of a long-acting, peripherally selective inhibitor of catechol-O-methyltransferase” (2010).

The test system of assay [1] is Rattus norvegicus. Kind of assay: Inhibition of COMT in Wistar rat liver homogenates assessed as metanephrine formation at 3 mg/kg, po measured after 3 hrs relative to control; values are per cent of control.
Assay [2] is described as follows: Cytotoxicity against mouse Neuro2a cells assessed as cell viability at 30 uM after 24 hrs. Particulars: N2a, read-out: Activity. Type of assay: functional.
The test system of assay [3] is Mus musculus. Kind of assay: Inhibition of COMT in NMRI mouse liver homogenates assessed as metanephrine formation at 3 mg/kg, po measured after 3 hrs relative to control; values are per cent of control.
In assay [4] the target is T1, Catechol O-methyltransferase (Rattus norvegicus) (UniProt P22734).
T1 sequence (whole entry): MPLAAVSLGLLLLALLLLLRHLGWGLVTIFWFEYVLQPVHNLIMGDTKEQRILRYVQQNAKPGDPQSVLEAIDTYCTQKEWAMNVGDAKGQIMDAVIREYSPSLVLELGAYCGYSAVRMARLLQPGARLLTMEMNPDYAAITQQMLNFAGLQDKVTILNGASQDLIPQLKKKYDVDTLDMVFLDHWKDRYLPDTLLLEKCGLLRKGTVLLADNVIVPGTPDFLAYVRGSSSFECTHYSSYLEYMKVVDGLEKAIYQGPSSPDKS
Kind of assay: Inhibition of COMT in rat liver homogenates assessed as metanephrine formation at 3 uM relative to control; values are per cent of control.

Assay [5] has as its target T1, Catechol O-methyltransferase (Rattus norvegicus). Kind of assay: Inhibition of COMT in rat liver homogenates assessed as metanephrine formation at 30 uM relative to control; values are per cent of control.
The subject of assay [6] is Mus musculus. Nature of the assay: Inhibition of COMT in NMRI mouse liver homogenates assessed as metanephrine formation at 30 mg/kg, po measured after 6 hrs relative to control; values are per cent of control.
The subject of assay [7] is Rattus norvegicus. Kind of assay: Inhibition of COMT in Wistar rat brain homogenates assessed as metanephrine formation at 3 mg/kg, po measured after 3 hrs relative to control; values are per cent of control.

On to `Cc1cc(C(F)(F)F)c(-c2noc(-c3cc(O)c(O)c([N+](=O)[O-])c3)n2)c(C)[n+]1[O-]`, for which the level, % of control at 3 mg/kg with Rattus norvegicus [1] came out at 1.3%. Also, the viability at 30 µM in assay [2] came out at 37.2%.
Turning to `NC(=O)c1ccc(-c2noc(-c3cc(O)c(O)c([N+](=O)[O-])c3)n2)cc1`, the level, % of control at 3 mg/kg in the assay with Mus musculus [3] was determined as 79.2%. Further, the viability at 30 µM in assay [2] came out at 91.2%.
With `CN1CCN(c2noc(-c3cc(O)c(O)c([N+](=O)[O-])c3)n2)CC1`, the level, % of control at 3 mg/kg in the assay on Mus musculus [3] amounted to 56.8%. Besides, the viability at 30 µM in assay [2] is 90.2%.
For `Cc1ccc(-c2noc(-c3cc(O)c(O)c([N+](=O)[O-])c3)n2)c(N2CCOCC2)n1`, the viability at 30 µM in assay [2] turned out to be 43.8%.
On to `Cc1cc(C)[n+]([O-])c(Cl)c1-c1noc(-c2cc(O)c(O)c([N+](=O)[O-])c2)n1`, for which the level, % of control at 3 mg/kg in the assay on Rattus norvegicus [1] worked out at 13.9%. In addition, in assay [2], the viability at 30 µM is 92.3%.
Take `Cc1cc(-c2noc(-c3cc(O)c(O)c([N+](=O)[O-])c3)n2)on1`: in assay [2], the viability at 30 µM was determined as 27.6%.
As to `Cc1ccc(-c2noc(-c3cc(O)c(O)c([N+](=O)[O-])c3)n2)c(Br)[n+]1[O-]`, in the assay with Rattus norvegicus [1], the level, % of control at 3 mg/kg was 33.7%. Further, the viability at 30 µM in assay [2] came out at 76.3%.
For `Cc1c(C)c(C)[n+]([O-])c(Cl)c1-c1noc(-c2cc(O)c(O)c([N+](=O)[O-])c2)n1`, in that order: 7.9% and 95.1%.
The residual activity is what remains of the control signal, in per cent. Turning to `O=[N+]([O-])c1cc(-c2ccnn2-c2cccc(Cl)c2)cc(O)c1O`, in assay [4], the residual activity amounted to 0%.
Take `O=[N+]([O-])c1cc(-c2nc(-c3cccs3)no2)cc(O)c1O`: the level, % of control at 3 mg/kg with Mus musculus [3] was determined as 29.6%. Further, the viability at 30 µM in assay [2] came to 19.3%.
Consider `Oc1ccc(-c2ccnn2-c2ccc(C(F)(F)F)cc2)c(F)c1O`, for which the residual activity in assay [5] is 32.3%.
Turning to `O=[N+]([O-])c1cc(-c2nc(-c3ccc[n+]([O-])c3C(F)(F)F)no2)cc(O)c1O`, the level, % of control at 3 mg/kg in the assay on Rattus norvegicus [1] was 5.5%. In addition, in assay [2], the viability at 30 µM was found to be 96.4%.
`Cc1ccc(C(=O)n2ncc(-c3ccccc3)c2-c2cc(O)c(O)c([N+](=O)[O-])c2)cc1`: the residual activity in assay [4] worked out at 2.8%. Besides, in the assay with Mus musculus [6], the level, % of control at 30 mg/kg worked out at 89.3%.
For `O=[N+]([O-])c1cc(-c2nc(-c3ccccc3)no2)cc(O)c1O`, the figures for the level, % of control at 3 mg/kg in the assay with Mus musculus [3], with Rattus norvegicus [1] and in the assay with Rattus norvegicus [7] were 20.6%, 20.6% and 71.7%, respectively. In assay [2], the viability at 30 µM is 43.1%. Moreover, the level, % of control at 30 mg/kg in the assay on Mus musculus [6] came to 7%.
For the compound `O=[N+]([O-])c1cc(-c2nc(-c3cccnc3)no2)cc(O)c1O`, the viability at 30 µM in assay [2] amounted to 26.7%.
Take `O=[N+]([O-])c1cc(-c2nc(-c3ccc(F)cc3)no2)cc(O)c1O`: the level, % of control at 3 mg/kg with Mus musculus [3] is 12.7%. Also, the viability at 30 µM in assay [2] was 29.5%.
The corresponding values for `CN1CCN(C(=O)c2ccc(-c3noc(-c4cc(O)c(O)c([N+](=O)[O-])c4)n3)cc2)CC1` are 74% and 90.7%.
On to `O=[N+]([O-])c1cc(-c2ccn[nH]2)cc(O)c1O`, for which the residual activity in assay [4] was found to be 0%.
As to `Cc1ccc(-n2nccc2-c2ccc(O)c(O)c2)cc1`, the residual activity in assay [5] was 41.2%.
Take `Cc1c(-c2noc(-c3cc(O)c(O)c([N+](=O)[O-])c3)n2)c(C(F)(F)F)cc(-c2ccccc2)[n+]1[O-]`: the level, % of control at 3 mg/kg in the assay with Rattus norvegicus [1] stood at 24.3%. For the same compound, the viability at 30 µM in assay [2] came to 26.6%.
`Nc1nc(-c2cc(O)c(O)c([N+](=O)[O-])c2)c(-c2ccccc2)s1`: in the assay with Mus musculus [6], the level, % of control at 30 mg/kg came out at 77.4%.
For the compound `O=[N+]([O-])c1cc(-c2nc(-c3cnccn3)no2)cc(O)c1O`, the viability at 30 µM in assay [2] worked out at 60.5%.
Regarding `O=[N+]([O-])c1cc(-c2nc(N3CCN(c4ccccn4)CC3)no2)cc(O)c1O`, in the assay on Mus musculus [3], the level, % of control at 3 mg/kg came to 32.2%. In addition, the viability at 30 µM in assay [2] stood at 24.6%.
As to `Cc1c(-c2noc(-c3cc(O)c(O)c([N+](=O)[O-])c3)n2)ccc(C(F)(F)F)[n+]1[O-]`, in the assay with Rattus norvegicus [1], the level, % of control at 3 mg/kg is 13.9%. Further, the viability at 30 µM in assay [2] was determined as 62.2%.
`Oc1cc(-c2ccnn2-c2ccccc2)cc(O)c1O`: the residual activity in assay [5] was determined as 0.8%.
Take `O=[N+]([O-])c1cc(-c2nc(N3CCOCC3)no2)cc(O)c1O`: in the assay on Mus musculus [3], the level, % of control at 3 mg/kg turned out to be 45.8%. Further, the viability at 30 µM in assay [2] came to 67.5%.
Consider `Cc1nc(-c2cc(O)c(O)c([N+](=O)[O-])c2)c(-c2ccccc2)o1`, for which the level, % of control at 30 mg/kg with Mus musculus [6] turned out to be 84.1%.
`O=[N+]([O-])c1cc(-c2nc(-c3ccc[n+]([O-])c3)no2)cc(O)c1O`: the level, % of control at 3 mg/kg in the assay with Rattus norvegicus [1] stood at 77%. In addition, the viability at 30 µM in assay [2] was found to be 93.8%.
For `O=[N+]([O-])c1cc(-c2nc(-c3ccc[n+]([O-])c3Cl)no2)cc(O)c1O`, in that order: 71.6% and 93.7%.
As to `O=[N+]([O-])c1cc(-c2nc(-c3ccncc3)no2)cc(O)c1O`, in assay [2], the viability at 30 µM turned out to be 27.3%.
With `O=[N+]([O-])c1cc(-c2noc(-c3ccccc3)n2)cc(O)c1O`, the level, % of control at 3 mg/kg in the assay with Rattus norvegicus [1] came out at 51.9%; in the assay on Rattus norvegicus [7] it was 55.6%. The level, % of control at 30 mg/kg in the assay on Mus musculus [6] worked out at 24.4%.
As for `Cn1nccc1-c1cc(O)c(O)c([N+](=O)[O-])c1`, the residual activity in assay [4] was 1.1%.
Turning to `O=C(O)c1cc(-c2ccnn2-c2cccc(Cl)c2)cc(O)c1O`, the residual activity in assay [5] amounted to 24.1%.
For the compound `Cc1ccc(-n2nccc2-c2cc(O)c(O)c([N+](=O)[O-])c2)cc1`, the residual activity in assay [4] was found to be 0%.
As for `O=[N+]([O-])c1cc(-c2nc(-c3cnccc3C(F)(F)F)no2)cc(O)c1O`, the viability at 30 µM in assay [2] turned out to be 14.7%.
With `O=C(Cc1ccccc1)c1cc(O)c(O)c([N+](=O)[O-])c1` [NEBICAPONE], the level, % of control at 30 mg/kg in the assay with Mus musculus [6] came to 85.7%.
As to `Cc1ccc(-c2noc(-c3cc(O)c(O)c([N+](=O)[O-])c3)n2)c(Cl)n1`, the viability at 30 µM in assay [2] is 53.1%.
On to `Oc1ccc(-c2ccnn2-c2ccccc2)c(O)c1O`, for which the residual activity in assay [5] worked out at 26.8%.
For the compound `O=[N+]([O-])c1cc(-c2nc(-c3ccnc(F)c3)no2)cc(O)c1O`, the viability at 30 µM in assay [2] came out at 25%.
With `O=[N+]([O-])c1cc(-c2ccnn2-c2ccccc2)cc(O)c1O`, the residual activity in assay [4] is 0%. Besides, the level, % of control at 30 mg/kg in the assay with Mus musculus [6] is 60.8%.
Regarding `O=[N+]([O-])c1cc(-c2c(-c3ccccc3)cnn2-c2cccc(Cl)c2)cc(O)c1O`, the residual activity in assay [4] was 68.6%.
Regarding `O=[N+]([O-])c1cc(-c2nc(-c3ccc(C(F)(F)F)[n+]([O-])c3)no2)cc(O)c1O`, the level, % of control at 3 mg/kg in the assay with Rattus norvegicus [1] turned out to be 34.4%. In addition, the viability at 30 µM in assay [2] is 87%.
For `O=[N+]([O-])c1cc(-c2nnc(-c3ccccc3)o2)cc(O)c1O`, the level, % of control at 3 mg/kg was 67.8% in the assay with Rattus norvegicus [1] and 87.9% in the assay on Rattus norvegicus [7]. In addition, in the assay with Mus musculus [6], the level, % of control at 30 mg/kg stood at 47.3%.
As for `Cc1nc(-c2noc(-c3cc(O)c(O)c([N+](=O)[O-])c3)n2)cs1`, the level, % of control at 3 mg/kg with Mus musculus [3] worked out at 22.9%. Also, the viability at 30 µM in assay [2] is 58.7%.
`O=[N+]([O-])c1cc(-c2ccnc(-c3ccccc3)n2)cc(O)c1O`: the level, % of control at 30 mg/kg in the assay on Mus musculus [6] was found to be 44.8%.
On to `O=[N+]([O-])c1cc(-c2nc(-c3ccccn3)no2)cc(O)c1O`, for which the viability at 30 µM in assay [2] was determined as 70.5%.
On to `O=[N+]([O-])c1cc(-c2nc(-c3ccc(Cl)c(Cl)c3)no2)cc(O)c1O`, for which the level, % of control at 3 mg/kg in the assay with Mus musculus [3] was found to be 8.8%. Besides, the viability at 30 µM in assay [2] came to 37.7%.
Turning to `N#Cc1ccc(-n2nccc2-c2cc(O)c(O)c([N+](=O)[O-])c2)cc1`, the residual activity in assay [4] stood at 0.3%. For the same compound, in the assay on Mus musculus [6], the level, % of control at 30 mg/kg worked out at 61.1%.
Regarding `O=[N+]([O-])c1cc(-c2nc(-c3ccc(Br)cc3)no2)cc(O)c1O`, the level, % of control at 3 mg/kg in the assay with Mus musculus [3] came to 12.7%. Moreover, the viability at 30 µM in assay [2] worked out at 12.2%.
Take `CC(=O)N1CCN(c2noc(-c3cc(O)c(O)c([N+](=O)[O-])c3)n2)CC1`: the level, % of control at 3 mg/kg in the assay on Mus musculus [3] is 68.2%. In assay [2], the viability at 30 µM was found to be 104%.
Take `Cc1[nH]nc(-c2ccc(O)c(O)c2O)c1-c1ccc(Cl)cc1`: the residual activity in assay [4] was 15.6%.
Consider `Cc1ccc(-c2noc(-c3cc(O)c(O)c([N+](=O)[O-])c3)n2)c(Cl)[n+]1[O-]`, for which, in the assay with Rattus norvegicus [1], the level, % of control at 3 mg/kg was 31.6%. Moreover, in assay [2], the viability at 30 µM is 100%.
On to `O=[N+]([O-])c1cc(-c2nc(-c3c[n+]([O-])ccc3C(F)(F)F)no2)cc(O)c1O`, for which, in the assay with Rattus norvegicus [1], the level, % of control at 3 mg/kg came out at 23.6%. Besides, the viability at 30 µM in assay [2] came to 93.4%.
Take `O=[N+]([O-])c1cc(-c2cncn2-c2ccccc2)cc(O)c1O`: in the assay on Mus musculus [6], the level, % of control at 30 mg/kg turned out to be 109%.
